Test results published in US7976241B2, “Soil remediation method and composition” (priority 2006, dated 2011).

Legend:
[1] = Chlorinated DNAPL dissolution in control sample without cosolvent-surfactant; assay type: physicochemical; conditions: in presence of DNAPL, no Citrus Burst-3, 50 g/L NaCl, 25° C., 48 hours
Source text: A chlorinated solvent DNAPL was obtained from a site consisting of chlorinated solvents and chlorinated semi-volatile compounds. Composition of the chlorinated solvent DNAPL is presented based on determinations using USEPA Methods 8260 and 8270. An aliquot of the DNAPL was mixed with a suitable quantity of deionized water to determine the equilibrium solubility of the individual compounds in the presence of the DNAPL.
The data collected under the experimentation conditions presented in Table 2 were obtained at 25° C. with 60 rpm shaker table mixing for 48 hours. After the shaker was shut off, the samples sat quietly for 5 minutes before the supernatant was analyzed. DNAPLmax represents the maximum concentration of DNAPL that may dissolve, given the mass of DNAPL and the volume of water.
Carbon tetrachloride and tetrachloroethylene comprised more than 87 percent of the DNAPL. Being a saturated compound, carbon tetrachloride is generally a pervasive and difficult to degrade compound once introduced to the subsurface. […] After 48 hours of slowly mixing the DNAPL and water mixtures, the samples were allowed to sit for 5 minutes and then samples of the solubilized fraction of the mixture were collected and analyzed for VOCs using USEPA Method 8260. Samples from experiment number 1, 3, 5, 7 and 8 (control) were analyzed. […]

[2] = cited from earlier work

SMILES: ClC(Cl)(Cl)Cl [Carbon Tetrachloride (CTC), Carbon Tetrachloride]
- Observed Solubility in Control Sample [1]: 100 µg/mL
- Pure Compound Aqueous Solubility [2]: 129 µg/mL

SMILES: Clc1c(Cl)c(Cl)c2c(Cl)c(Cl)c(Cl)c(Cl)c2c1Cl [Octachloronaphthalene (OCN), Octachloronaphthalene]
- Pure Compound Aqueous Solubility [2]: insoluble
